Square brackets hold non-standard residues; d marks the D form. Peptide text beside a SMILES is read from it. * marks the point of attachment. Fmoc = O=C(OCC1c2ccccc2-c2ccccc21)*; GABA = NCCCC(=O)O
system: Human red blood cells (RBCs); experiment: Hemolytic activity; type: cell-based; settings: Tables 18-21
Description: Each assay was carried out in 96-well culture tissue plates. Four wells per plate contain 125 μl of a non-peptide positive control (1% Triton in de-ionized water), and four wells per plate contain 125 μl of a control blank, phosphate buffered saline (PBS). The hemolytic peptide melittin was used as comparative control. The controls served to detect possible contamination and to calculate the percent hemolysis of each peptide. Human red blood cells (RBCs) were washed with PBS and centrifuged to separate them from the serum. The cells were then resuspended in PBS to a final suspension of 0.5% RBC. 125 μl of this suspension was added to the peptides and controls solution. The release of hemoglobin resulting from the cell lysis was determined by measuring the OD at 414 nm of 100 μl of the supernatant.

Question: With `CC[C@@H](C)[C@@H](NC(=O)[C@@H](CS)NC(=O)[C@H](CCCCN)NC(=O)OCC1c2ccccc2-c2ccccc21)C(=O)NCCCC(N)=O` [(KFmoc)ci(gABA)-NH2] (Fmoc-K[dC][dI][GABA]-NH2) as the compound, how does the “HD50 (concentration necessary to lyse 50% of the cells)” value read?
Answer: 54 µg/mL

Question: For `CC[C@@H](C)[C@@H](NC(=O)[C@@H](CS)NC(=O)[C@H](CCCCN)NC(=O)OCC1c2ccccc2-c2ccccc21)C(=O)N[C@@H](C)C(N)=O` [(KFmoc)ciA-NH2] (Fmoc-K[dC][dI]A-NH2), which “HD50 (concentration necessary to lyse 50% of the cells)” value is on record?
Answer: 68 µg/mL

Question: How did the “HD50 (concentration necessary to lyse 50% of the cells)” value turn out when `CC[C@@H](C)[C@@H](NC(=O)[C@@H](CS)NC(=O)[C@H](CCCCN)NC(=O)OCC1c2ccccc2-c2ccccc21)C(=O)N[C@@H](CS)C(N)=O` [(KFmoc)ciC-NH2] (Fmoc-K[dC][dI]C-NH2) was run?
Answer: 400 µg/mL

Question: `CC[C@@H](C)[C@@H](NC(=O)[C@@H](CS)NC(=O)[C@H](CCCCN)NC(=O)OCC1c2ccccc2-c2ccccc21)C(=O)N[C@@H](Cc1ccccc1)C(N)=O` [(KFmoc)ciF-NH2] (Fmoc-K[dC][dI]F-NH2) was tested. Which “HD50 (concentration necessary to lyse 50% of the cells)” value did it give?
Answer: 295 µg/mL

target: melittin (Apis mellifera, UniProt P01501); experiment: cell-based; settings: read-out: IC50, inhibition of melittin (converted)
Sequence (P01501 44-69 limits assumed): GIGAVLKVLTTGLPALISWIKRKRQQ

Question: Which IC50 does the source give for Ac-FDIWFE-NH2 [Ac-FDIWFE-NH2] here?
Answer: 185 µM

Question: Which IC50 does the source give for Ac-FDIWFK-NH2 [Ac-FDIWFK-NH2] here?
Answer: 128 µM

Question: Which IC50 does the source give for Ac-FDIYCE-NH2 [Ac-FDIYCE-NH2] here?
Answer: 229 µM

Question: Ac-FDIYFE-NH2 [Ac-FDIYFE-NH2] was tested. Which IC50 did it give?
Answer: 1050 µM

Question: With Ac-FIIWCE-NH2 [Ac-FIIWCE-NH2] as the compound, how does the IC50 read?
Answer: 4 µM

Question: How did the IC50 turn out when Ac-FIIWFE-NH2 [Ac-FIIWFE-NH2] was run?
Answer: 6.03 µM

Question: How did the IC50 turn out when Ac-FIIWFK-NH2 [Ac-FIIWFK-NH2] was run?
Answer: 1450 µM

Question: Which IC50 does the source give for Ac-FIIYCE-NH2 [Ac-FIIYCE-NH2] here?
Answer: 5.68 µM

Question: Which IC50 does the source give for Ac-FIIYFE-NH2 [Ac-FIIYFE-NH2] here?
Answer: 7.8 µM

Question: Ac-FIIYFK-NH2 [Ac-FIIYFK-NH2] was tested. Which IC50 did it give?
Answer: 419 µM

Question: Ac-FQIWCE-NH2 [Ac-FQIWCE-NH2] was tested. Which IC50 did it give?
Answer: 10.9 µM

Question: For Ac-FQIWFE-NH2 [Ac-FQIWFE-NH2], which IC50 is on record?
Answer: 9.01 µM

Question: Which IC50 does the source give for Ac-FQIYCE-NH2 [Ac-FQIYCE-NH2] here?
Answer: 16.6 µM

Question: Which IC50 does the source give for Ac-FQIYFE-NH2 [Ac-FQIYFE-NH2] here?
Answer: 21.4 µM

Question: How did the IC50 turn out when Ac-IDIWCE-NH2 [Ac-IDIWCE-NH2] was run?
Answer: 978 µM

Question: How did the IC50 turn out when Ac-IDIWCK-NH2 [Ac-IDIWCK-NH2] was run?
Answer: 130 µM

Question: With Ac-IDIYCE-NH2 [Ac-IDIYCE-NH2] as the compound, how does the IC50 read?
Answer: 361 µM

Question: How did the IC50 turn out when Ac-IDIYFE-NH2 [Ac-IDIYFE-NH2] was run?
Answer: 355 µM

Question: Ac-IDIYFK-NH2 [Ac-IDIYFK-NH2] was tested. Which IC50 did it give?
Answer: 918 µM

Question: For Ac-IIIWCE-NH2 [Ac-IIIWCE-NH2], which IC50 is on record?
Answer: 5.51 µM

Question: Which IC50 does the source give for Ac-IIIWFE-NH2 [Ac-IIIWFE-NH2] here?
Answer: 6.27 µM

Question: With Ac-IIIYCE-NH2 [Ac-IIIYCE-NH2] as the compound, how does the IC50 read?
Answer: 15.1 µM

Question: With Ac-IIIYFE-NH2 [Ac-IIIYFE-NH2] as the compound, how does the IC50 read?
Answer: 5.85 µM

Question: With Ac-IQIWCE-NH2 [Ac-IQIWCE-NH2] as the compound, how does the IC50 read?
Answer: 6.73 µM

Question: With Ac-IQIWFE-NH2 [Ac-IQIWFE-NH2] as the compound, how does the IC50 read?
Answer: 24 µM

Question: For Ac-IQIYCE-NH2 [Ac-IQIYCE-NH2], which IC50 is on record?
Answer: 5.93 µM

Question: Which IC50 does the source give for Ac-IQIYCK-NH2 [Ac-IQIYCK-NH2] here?
Answer: 1310 µM

Question: With Ac-IQIYFE-NH2 [Ac-IQIYFE-NH2] as the compound, how does the IC50 read?
Answer: 19.9 µM

Question: With Ac-IVIFFA-NH2 [Ac-IVIFFA-NH2] as the compound, how does the IC50 read?
Answer: 33.3 µM

Question: For Ac-IVIFFC-NH2 [Ac-IVIFFC-NH2], which IC50 is on record?
Answer: 92.1 µM

Question: Which IC50 does the source give for Ac-IVIFFD-NH2 [Ac-IVIFFD-NH2] here?
Answer: 12.6 µM

Question: With Ac-IVIFFE-NH2 [Ac-IVIFFE-NH2] as the compound, how does the IC50 read?
Answer: 17.3 µM

Question: Which IC50 does the source give for Ac-IVIFFF-NH2 [Ac-IVIFFF-NH2] here?
Answer: 205 µM

Question: For Ac-IVIFFG-NH2 [Ac-IVIFFG-NH2], which IC50 is on record?
Answer: 29.9 µM

Question: Ac-IVIFFH-NH2 [Ac-IVIFFH-NH2] was tested. Which IC50 did it give?
Answer: 36.8 µM

Question: Which IC50 does the source give for Ac-IVIFFI-NH2 [Ac-IVIFFI-NH2] here?
Answer: 105 µM

Question: For Ac-IVIFFK-NH2 [Ac-IVIFFK-NH2], which IC50 is on record?
Answer: > 310 µM

Question: Ac-IVIFFL-NH2 [Ac-IVIFFL-NH2] was tested. Which IC50 did it give?
Answer: 140 µM

Question: For Ac-IVIFFM-NH2 [Ac-IVIFFM-NH2], which IC50 is on record?
Answer: 25.9 µM

Question: Which IC50 does the source give for Ac-IVIFFN-NH2 [Ac-IVIFFN-NH2] here?
Answer: 22.7 µM

Question: How did the IC50 turn out when Ac-IVIFFP-NH2 [Ac-IVIFFP-NH2] was run?
Answer: 49 µM

Question: For Ac-IVIFFQ-NH2 [Ac-IVIFFQ-NH2], which IC50 is on record?
Answer: 32.2 µM

Question: Ac-IVIFFR-NH2 [Ac-IVIFFR-NH2] was tested. Which IC50 did it give?
Answer: > 299 µM

Question: For Ac-IVIFFS-NH2 [Ac-IVIFFS-NH2], which IC50 is on record?
Answer: 27.4 µM
